Experimental data taken from the CheMixHub viscosity set.
± gives the uncertainty stated by the source.

Assay: xn = mol fraction of the nth substance listed

ClC(Cl)(Cl)Cl + C[N+](=O)[O-]
Conditions	viscosity [mPa·s]
298 K, 101.3 kPa, x1 = 0.0959	0.636 ± 0.008
298 K, 101.3 kPa, x1 = 0.1961	0.655 ± 0.008
298 K, 101.3 kPa, x1 = 0.3609	0.702 ± 0.008
298 K, 101.3 kPa, x1 = 0.5088	0.751 ± 0.009
298 K, 101.3 kPa, x1 = 0.7487	0.805 ± 0.009
298.15 K, 101 kPa, x2 = 0.1023	0.884 ± 0.0087
298.15 K, 101 kPa, x2 = 0.1662	0.8265 ± 0.083
298.15 K, 101 kPa, x2 = 0.2011	0.8405 ± 0.0084
298.15 K, 101 kPa, x2 = 0.2958	0.8074 ± 0.0082
298.15 K, 101 kPa, x2 = 0.3102	0.7692 ± 0.078
298.15 K, 101 kPa, x2 = 0.3946	0.7776 ± 0.008
298.15 K, 101 kPa, x2 = 0.4351	0.7285 ± 0.073
298.15 K, 101 kPa, x2 = 0.4978	0.7481 ± 0.0078
298.15 K, 101 kPa, x2 = 0.5452	0.6969 ± 0.07
298.15 K, 101 kPa, x2 = 0.6013	0.7175 ± 0.0076
298.15 K, 101 kPa, x2 = 0.6424	0.6735 ± 0.068
298.15 K, 101 kPa, x2 = 0.701	0.6857 ± 0.0075
298.15 K, 101 kPa, x2 = 0.7297	0.6556 ± 0.066
298.15 K, 101 kPa, x2 = 0.799	0.6627 ± 0.0073
298.15 K, 101 kPa, x2 = 0.8077	0.6427 ± 0.065
298.15 K, 101 kPa, x2 = 0.878	0.6339 ± 0.064
298.15 K, 101 kPa, x2 = 0.9009	0.6481 ± 0.0073
298.15 K, 101 kPa, x2 = 0.9419	0.6295 ± 0.064
303.15 K, 101 kPa, x2 = 0.1	0.7718 ± 0.021
303.15 K, 101 kPa, x2 = 0.1023	0.8319 ± 0.0083
303.15 K, 101 kPa, x2 = 0.2	0.7427 ± 0.02
303.15 K, 101 kPa, x2 = 0.2011	0.7922 ± 0.0081
303.15 K, 101 kPa, x2 = 0.2958	0.7599 ± 0.0079
303.15 K, 101 kPa, x2 = 0.3	0.7058 ± 0.019
303.15 K, 101 kPa, x2 = 0.3946	0.735 ± 0.0078
303.15 K, 101 kPa, x2 = 0.4	0.6831 ± 0.018
303.15 K, 101 kPa, x2 = 0.4978	0.7052 ± 0.0076
303.15 K, 101 kPa, x2 = 0.5	0.6569 ± 0.017
303.15 K, 101 kPa, x2 = 0.6	0.6415 ± 0.017
303.15 K, 101 kPa, x2 = 0.6013	0.6783 ± 0.0074
303.15 K, 101 kPa, x2 = 0.7	0.624 ± 0.017
303.15 K, 101 kPa, x2 = 0.701	0.6511 ± 0.0073
303.15 K, 101 kPa, x2 = 0.799	0.6308 ± 0.0072
303.15 K, 101 kPa, x2 = 0.8	0.6126 ± 0.016
303.15 K, 101 kPa, x2 = 0.9	0.6123 ± 0.016
303.15 K, 101 kPa, x2 = 0.9009	0.6177 ± 0.0071
308.15 K, 101 kPa, x2 = 0.1	0.7423 ± 0.02
308.15 K, 101 kPa, x2 = 0.1023	0.7884 ± 0.0081
308.15 K, 101 kPa, x2 = 0.2	0.6974 ± 0.018
308.15 K, 101 kPa, x2 = 0.2011	0.7475 ± 0.0079
308.15 K, 101 kPa, x2 = 0.2958	0.7146 ± 0.0077
308.15 K, 101 kPa, x2 = 0.3	0.668 ± 0.018
308.15 K, 101 kPa, x2 = 0.3946	0.6899 ± 0.0075
308.15 K, 101 kPa, x2 = 0.4	0.6479 ± 0.017
308.15 K, 101 kPa, x2 = 0.4978	0.6672 ± 0.0074
308.15 K, 101 kPa, x2 = 0.5	0.626 ± 0.017
308.15 K, 101 kPa, x2 = 0.6	0.6063 ± 0.016
308.15 K, 101 kPa, x2 = 0.6013	0.6432 ± 0.0072
308.15 K, 101 kPa, x2 = 0.7	0.5927 ± 0.016
308.15 K, 101 kPa, x2 = 0.701	0.6169 ± 0.0071
308.15 K, 101 kPa, x2 = 0.799	0.5981 ± 0.007
308.15 K, 101 kPa, x2 = 0.8	0.5834 ± 0.015
308.15 K, 101 kPa, x2 = 0.9	0.5735 ± 0.015
308.15 K, 101 kPa, x2 = 0.9009	0.5901 ± 0.0069
313.15 K, 101 kPa, x2 = 0.1023	0.7324 ± 0.0079
313.15 K, 101 kPa, x2 = 0.2011	0.6952 ± 0.0076
313.15 K, 101 kPa, x2 = 0.2958	0.674 ± 0.0074
313.15 K, 101 kPa, x2 = 0.3946	0.648 ± 0.0073
313.15 K, 101 kPa, x2 = 0.4978	0.6232 ± 0.0072
313.15 K, 101 kPa, x2 = 0.6013	0.6053 ± 0.0071
313.15 K, 101 kPa, x2 = 0.701	0.5841 ± 0.0069
313.15 K, 101 kPa, x2 = 0.799	0.5675 ± 0.0068
313.15 K, 101 kPa, x2 = 0.9009	0.5621 ± 0.0068
318 K, 101.3 kPa, x1 = 0.0897	0.5256 ± 0.02
318 K, 101.3 kPa, x1 = 0.1941	0.5442 ± 0.021
318 K, 101.3 kPa, x1 = 0.3589	0.5822 ± 0.022
318 K, 101.3 kPa, x1 = 0.5073	0.6189 ± 0.023
318 K, 101.3 kPa, x1 = 0.7644	0.6719 ± 0.025
318.15 K, 101 kPa, x2 = 0.1	0.6487 ± 0.017
318.15 K, 101 kPa, x2 = 0.2	0.6201 ± 0.017
318.15 K, 101 kPa, x2 = 0.3	0.5962 ± 0.016
318.15 K, 101 kPa, x2 = 0.4	0.5782 ± 0.015
318.15 K, 101 kPa, x2 = 0.5	0.5609 ± 0.015
318.15 K, 101 kPa, x2 = 0.6	0.546 ± 0.015
318.15 K, 101 kPa, x2 = 0.7	0.5328 ± 0.014
318.15 K, 101 kPa, x2 = 0.8	0.5246 ± 0.014
318.15 K, 101 kPa, x2 = 0.9	0.5207 ± 0.014

ClC(Cl)(Cl)Cl + CCC(C)O
viscosity [mPa·s], 101 kPa
Conditions	298.15 K	308.15 K	318.15 K
x2 = 0.0864	0.89 ± 0.009	0.779 ± 0.008	0.679 ± 0.007
x2 = 0.1674	0.934 ± 0.009	0.807 ± 0.008	0.686 ± 0.007
x2 = 0.2076	0.91 ± 0.009	0.801 ± 0.008	0.695 ± 0.007
x2 = 0.2585	0.94 ± 0.009	0.819 ± 0.008	0.701 ± 0.007
x2 = 0.3003	0.954 ± 0.009	0.825 ± 0.008	0.713 ± 0.007
x2 = 0.3969	1.053 ± 0.01	0.862 ± 0.008	0.731 ± 0.007
x2 = 0.5009	1.163 ± 0.011	0.938 ± 0.009	0.783 ± 0.008
x2 = 0.5957	1.335 ± 0.013	1.039 ± 0.01	0.86 ± 0.008
x2 = 0.6933	1.545 ± 0.015	1.183 ± 0.011	0.942 ± 0.009
x2 = 0.7903	1.863 ± 0.018	1.378 ± 0.013	1.087 ± 0.011
x2 = 0.9054	2.429 ± 0.023	1.746 ± 0.017	1.287 ± 0.012

CCCC(C)=O + CCCCN(CCCC)CCCC
viscosity [mPa·s], 101 kPa
Conditions	298.15 K	303.15 K	308.15 K
x2 = 0.0499	0.49 ± 0.016	0.465 ± 0.016	0.436 ± 0.016
x2 = 0.1	0.521 ± 0.017	0.49 ± 0.016	0.462 ± 0.016
x2 = 0.1499	0.554 ± 0.017	0.521 ± 0.017	0.491 ± 0.016
x2 = 0.2	0.588 ± 0.017	0.551 ± 0.017	0.519 ± 0.017
x2 = 0.2498	0.624 ± 0.017	0.584 ± 0.017	0.547 ± 0.017
x2 = 0.3	0.66 ± 0.017	0.614 ± 0.017	0.575 ± 0.017
x2 = 0.3999	0.735 ± 0.017	0.681 ± 0.017	0.636 ± 0.017
x2 = 0.4997	0.81 ± 0.017	0.75 ± 0.017	0.698 ± 0.017
x2 = 0.5997	0.889 ± 0.017	0.821 ± 0.017	0.764 ± 0.017
x2 = 0.7002	0.974 ± 0.018	0.898 ± 0.017	0.832 ± 0.017
x2 = 0.7997	1.065 ± 0.018	0.977 ± 0.018	0.902 ± 0.017
x2 = 0.8463	1.108 ± 0.018	1.02 ± 0.018	0.936 ± 0.018
x2 = 0.899	1.165 ± 0.018	1.064 ± 0.018	0.979 ± 0.018
x2 = 0.956	1.227 ± 0.018	1.118 ± 0.018	1.025 ± 0.018

CCOC(=O)c1ccccc1O + CS(C)=O
303.15 K, 101 kPa
Conditions	viscosity [mPa·s]
x1 = 0.0499	1.888 ± 0.022
x1 = 0.1687	2.196 ± 0.025
x1 = 0.2404	2.294 ± 0.026
x1 = 0.3226	2.533 ± 0.029
x1 = 0.4179	2.57 ± 0.03
x1 = 0.5265	2.723 ± 0.031
x1 = 0.6564	2.843 ± 0.033

ClC(Cl)(Cl)Cl + CN(C)C=O
viscosity [mPa·s], 101.3 kPa
Conditions	x1 = 0.1208	x1 = 0.129	x1 = 0.2535	x1 = 0.2556	x1 = 0.4423	x1 = 0.4437	x1 = 0.5937	x1 = 0.595	x1 = 0.8073	x1 = 0.8235
298 K	–	0.879 ± 0.011	–	0.918 ± 0.011	–	0.958 ± 0.011	–	0.966 ± 0.011	0.949 ± 0.01	–
318 K	0.6789 ± 0.025	–	0.7118 ± 0.026	–	0.745 ± 0.027	–	0.7608 ± 0.028	–	–	0.7506 ± 0.027

CCCC(C)=O + CCC(C)=O
viscosity [mPa·s], 101 kPa
Conditions	x2 = 0.2	x2 = 0.4	x2 = 0.6	x2 = 0.8
293.15 K	0.483 ± 0.005	0.461 ± 0.005	0.439 ± 0.005	0.418 ± 0.005
313.15 K	0.388 ± 0.004	0.372 ± 0.004	0.357 ± 0.004	0.341 ± 0.004

ClC(Cl)(Cl)Cl + COC(C)=O
303.15 K, 101.3 kPa
Conditions	viscosity [mPa·s]
x2 = 0.1004	0.763 ± 0.005
x2 = 0.1926	0.7035 ± 0.0046
x2 = 0.2864	0.6472 ± 0.0043
x2 = 0.4018	0.587 ± 0.004
x2 = 0.5025	0.5405 ± 0.0038
x2 = 0.6004	0.5006 ± 0.0035
x2 = 0.7001	0.4608 ± 0.0033
x2 = 0.8964	0.3807 ± 0.0029

CC(C)[O-].CC(C)[O-].CC(C)[O-].CC(C)[O-].[Ti+4] + Cc1ccc(C)cc1
viscosity [mPa·s], 101.3 kPa
Conditions	x1 = 0.0401	x1 = 0.0871	x1 = 0.1382	x1 = 0.1994	x1 = 0.2719	x1 = 0.3593	x1 = 0.4654	x1 = 0.5987	x1 = 0.77
293.15 K	0.671 ± 0.041	0.7098 ± 0.043	0.7652 ± 0.046	0.8373 ± 0.051	0.9143 ± 0.055	1.042 ± 0.063	1.235 ± 0.075	1.53 ± 0.093	2.053 ± 0.12
303.15 K	0.5881 ± 0.036	0.6215 ± 0.038	0.6649 ± 0.04	0.7153 ± 0.043	0.7695 ± 0.047	0.855 ± 0.052	0.9724 ± 0.059	1.137 ± 0.069	1.398 ± 0.085
313.15 K	0.5226 ± 0.032	0.5494 ± 0.033	0.5813 ± 0.035	0.6238 ± 0.038	0.6641 ± 0.04	0.7258 ± 0.044	0.8058 ± 0.049	0.9111 ± 0.055	1.063 ± 0.064
323.15 K	0.4655 ± 0.028	0.4896 ± 0.03	0.5162 ± 0.031	0.5501 ± 0.034	0.5849 ± 0.036	0.6326 ± 0.038	0.6922 ± 0.042	0.7664 ± 0.047	0.871 ± 0.053
